The numbers were not newly measured in patent publication US12205808B2 (priority 2019, dated 2025), which cites them from elsewhere.

The conditions of this data set: in vivo.

Turning to `CC(C)[C@H](NC(=O)c1nn(CC2CCCCC2)c2ccccc12)C(N)=O`, the Concentration in plasma is 0.4 to 14.3 ng/mL and the Whole blood concentrations was 0.6 to 10 ng/mL.
Turning to `N#CCCCCn1cc(C(=O)c2cccc3ccccc23)c2ccccc21` [AM-2232], the “Concentration in postmortem plasma samples” value is reported as 0.86 ng/mL.
As to `Cc1ccc(C(=O)c2cn(CCCCCF)c3ccccc23)c2ccccc12` [MAM-2201], the “Concentration in postmortem plasma samples” value is recorded as 16.3 ng/mL.
